Test results: US20190151390A1, “PERILLA EXTRACT COMPOSITION” (INQPHARM GROUP SDN BHD, priority 2016, published 2019)

System: HMC-1 cells
Assay: Mast cell test: histamine release from IgE/anti-IgE stimulated HMC-1 cells, ELISA of supernatant
Format: cell-based
Settings: for Histamine reduction (%): compared to respective vehicle control; for Histamine (ng/ml) mean ± SD (n = 3): HMC-1 cells, supernatant ELISA
Experimental: Mast cell lines, i.e. HMC1 cells (provided by Dr Joseph H. Butterfield; Mayo Clinic, Rochester, Minn., USA), were cultured in Isocove's Modified Dulbecco's Medium (IMDM) containing 10% Fetal Bovine Seum (FBS), 2 mM L-glutamine, 50 μM 2-mercaptoethanol, 100 U/mL penicillin and 100 μg/mL streptomycin. Cells were maintained at 37° C. in 5% CO2 in a humidified atmosphere. Percentage of living cells was determined by trypan blue staining. A 1:10 dilution with 50 μl cell suspension and 450 μl trypan blue was prepared and the number of living and dead cells was counted in a hemocytometer. 10^6 living cells were transferred into safe-lock Eppendorf tubes. Cell suspensions were centrifuged (200 g, 5 min) and supernatant was discarded. The effect of perilla oil, sesame oil and a combination of perilla oil and sesame oil (1:1 ratio) in the vehicle Kolliphor ELP (polyoxyl-35 hydrogenated castor oil) was determined. The positive control Cromolyn in phosphate buffer saline (PBS), the vehicles PBS and ELP were also tested as controls. After adding 100 μl IgE (100 ng/ml in PBS or ELP) to the cell pellets, cells were incubated for 12 hours over night, at 37° C. Cells were then incubated for 2 hours, at 37° C. with two different concentrations of compounds, i.e. 250 μg/ml and 500 μg/ml. After centrifugation (200 g, 5 min) supernatant was discarded and cell pellet was again incubated for 1 hour, at 37° C. with 100 μl anti-IgE (1 μg/ml in PBS or ELP). For the final incubation time of 6 hours, at 37° C., 300 μl HMC1 media was added. Cells were again centrifuged (200 g, 5 min) and supernatant was collected and stored as 300 μl aliquots at −20° C. for ELISA measurements. Cell pellets were resuspended in 100 μl HMC1 media for determining cell viability. The concentration of histamine in the collected supernatant was determined by ELISA, using a kit obtained from IBL International according to the manufacturer's guidelines. Each sample was measured twice. Due to expected measuring limits, vehicle (PBS, ELP) treated samples were diluted 1:2. Statistical analysis was performed with GraphPad Prism (Version 5.01) software (GraphPad Software Inc., San Diego, Calif., USA) using the unpaired two-tailed Students t test. A P value of less than 0.05 was considered statistically significant.

O=C(O)c1cc(=O)c2c(OCC(O)COc3cccc4oc(C(=O)O)cc(=O)c34)cccc2o1 [Cromolyn]
Histamine reduction (%) compared to averaged histamine release of perilla oil and sesame oil (250 μg/ml): 8.41% | Histamine reduction (%) (250 μg/ml): 57.61% | Histamine reduction (%) compared to averaged histamine release of perilla oil and sesame oil (500 μg/ml): 6.75% | Histamine reduction (%) (500 μg/ml): 55.28% | Histamine (ng/ml) mean ± SD (n = 3) (250 μg/ml): 121.05 ± 0.73 ng/mL | Histamine (ng/ml) mean ± SD (n = 3) (500 μg/ml): 127.70 ± 13.32 ng/mL | Increase of percentage of histamine reduction compared to treatment with individual compounds (range over 250 and 500 μg/ml): 6.8-8.4%
